Experimental data: US11833185B2, “Anti-neurodegenerative therapeutic, method of manufacture, and use” (UNIVERSITY OF KENTUCKY RESEARCH FOUNDATION, priority 2017, dated 2023)
Read-outs that look alike come from different tables or passages of the source. Where a SMILES comes first, the peptide text is derived from it.

Legend:
[1] = tested on: striatum levels of DA, DOPAC, HVA, 5-HT, 5-HIAA, and NE; assay: Striatum neurochemistry (RP-HPLC EC) after repeated intranasal administration; type: in vivo, normal Fischer 344 rats; conditions: for Turnover ratio 5-H1AA/5-HT / Turnover ratio (HVA + DOPAC)/DA / Turnover ratio DOPAC/DA / Turnover ratio HVA/DA / 5-HIAA / 5-HT / DA / DOPAC / HVA / NE: 5 days a week for 3 weeks, combined left and right striatum, mean; for 5-HIAA / 5-HT / DA / DOPAC / HVA / NE: wet tissue weight
Protocol: (§1) Groups of 12, 3 month old Fischer 344 rats were intranasally dosed 50 microliters (4 single 12.5 microliter administrations, 2 per nare, 5 minutes between each nare administration) of either vehicle, 1.1 mg/mL, or 3.5 mg/mL of AV6403 [Leu-Ala-Pro-Ala-Glu-Asp-NH2] (SEQ ID NO: 1) once a day for 5 days a week, for 3 weeks (5 consecutive days of dosing, 2 off days, repeated total of 3 times). Following day 21, rats were euthanized and brain tissue was recovered and sections removed and weighed for neurochemical analysis by Reverse-Phase High Pressure Liquid Chromatography Electrochemical detection (RP-HPLC EC).
Dopamine [DA], its major metabolites 3,4-Dihydroxy-Phenylacetic Acid (DOPAC) and Homovanillic Acid (HVA), 5-hydroxytryptamine (5-HT, serotonin), its metabolite 5-hydroxyindoleacetic acid (5-HIAA), and norepinephrine (NE) were measured in the striatum and substantia nigra (SN) for each group. In the striatum [TABLE 1], 1.1 mg/mL dosing of AV6403 led to a 20% and 25% reduction of DA and HVA levels [FIG. 1A-FIG. 1C], respectively, resulting in an increase in dopamine turnover (22% [DOPAC/DA] and 16% [[(HVA+DOPAC)/DA]), relative to saline vehicle treated rats [FIG. 2A-FIG. 2B]. […] NE levels were reduced in the striatum with about a 36% reduction for AV6403 1.1 mg/mL dosage versus vehicle [TABLE 1].
as §1, with “1.2” for “1.1”, “3.6” for “3.5”, “AV7624 [Glu-Ala-Pro-Phe-Glu-Asp-NH2]” for “AV6403 [Leu-Ala-Pro-Ala-Glu-Asp-NH2] (SEQ ID NO: 1)”, “RP-HPLC EC.” for “Reverse-Phase High Pressure Liquid Chromatography Electrochemical detection (RP-HPLC EC).”
DA, DOPAC, HVA, 5-HT, 5-HIAA, and NE were measured in the striatum and SN for each group. In the striatum [TABLE 5], 3.6 mg/mL dosing of AV7624 led to an approximate 18%, 39%, and 30% reduction of DA, DOPAC, and HVA levels [FIG. 6A-FIG. 6C], respectively, resulting in an about 18% decrease in dopamine turnover ([DOPAC/DA] and [(HVA+DOPAC)/DA]), relative to saline vehicle treated rats [FIG. 7A-FIG. 7B]. […] NE levels were reduced in the striatum in a dose dependent manner, with about a 32% reduction for the AV7624 3.6 mg/mL dosage versus vehicle [TABLE 5]

[2] = tested on: substantia nigra levels of DA, DOPAC, HVA, 5-HT, 5-HIAA, and NE; assay: Substantia nigra neurochemistry (RP-HPLC EC) after repeated intranasal administration; type: in vivo, normal Fischer 344 rats; conditions: for Turnover ratio 5-HIAA/5-HT / Turnover ratio (HVA + DOPAC)/DA / Turnover ratio DOPAC/DA / Turnover ratio HVA/DA / 5-HIAA / 5-HT / DA / DOPAC / HVA / NE: 5 days a week for 3 weeks, combined left and right substantia nigra, mean; for 5-HIAA / 5-HT / DA / DOPAC / HVA / NE: wet tissue weight
Protocol: as §1
In the SN [TABLE 3], treatment of AV6403 led to about a 13% increase in DOPAC and a 11% reduction of HVA, depending on the dosage, [FIG. 4A-FIG. 4C] resulting in an increase in dopamine turnover (20% [DOPAC/DA] for 3.5 mg/mL dosage; 23% [(HVA+DOPAC)/DA] for 1.1 mg/mL) relative to saline vehicle treated rats [FIG. 5A-FIG. 5B]. Treatment with 1.1 mg/mL AV6403 decreased 5-HT by 10% in the SN, resulting in a 16% increase in serotonin turnover [5-HIAA/5-HT] [TABLE 4]. The higher dosage (3.5 mg/mL AV6403) increased NE levels in the SN by about 23% versus vehicle treated rats, respectively [TABLE 3].
as §1, with “1.2” for “1.1”, “3.6” for “3.5”, “AV7624 [Glu-Ala-Pro-Phe-Glu-Asp-NH2]” for “AV6403 [Leu-Ala-Pro-Ala-Glu-Asp-NH2] (SEQ ID NO: 1)”, “RP-HPLC EC.” for “Reverse-Phase High Pressure Liquid Chromatography Electrochemical detection (RP-HPLC EC).”
In the SN [TABLE 7], treatment with 3.6 mg/mL AV7624 led to about a 23%, 22%, and a 6% decrease in DA, DOPAC, and HVA [FIG. 9A-FIG. 9C], relative to saline vehicle treated rats, with minor effects on dopamine turnover [FIG. 10A-FIG. 10B]. Treatment with 3.6 mg/mL AV7624 decreased 5-HT by 20% and 5-HIAA by about 18% in the SN [TABLE 7], resulting in a minor effect on serotonin turnover [TABLE 8]. NE levels in the SN were decreased (17% and 13%) by both dosages (1.2 mg/mL and 3.6 mg/mL) versus vehicle treated rats, respectively [TABLE 7].

[3] = Plasma levels by LC-MS/MS after subcutaneous administration; type: in vivo, rat; conditions: for Cmax: rat, plasma, sc, read-out: maximum plasma levels
[4] = rat, in vivo, sc, 100 mg/kg
[5] = tested on: MN9D neuronal cells; assay: LIVE/DEAD and JC-1 assays for toxicity and loss of mitochondrial potentials; conditions: 100 nM, 1 and 3 hours post treatment
Protocol: (§2) Testing involved permutations of size and diversifying amino acid sequence at each residue position. Sequence design began with Proline-Proline-Glutamate-Alanine-Proline-Alanine-Glutamate-Aspartate-Arginine-Serine-Leucine-NH2. […] These properties were tested using the dopaminergic MN9D neuronal cell line. Each candidate peptide sequence was dissolved in citrate buffer and added to MN9D cells (Choi et al., 1992) that were cultured in Dulbecco's Modified Eagle's Medium [DMEM (containing pyridoxol HCl); Sigma, St. Louis, MO] supplemented with 10% Fetal Bovine serum (HyClone, Logan, UT), 50 U/ml penicillin and streptomycin to a final 100 nM concentration. Using LIVE/DEAD and JC-1 assays in MN9D neuronal cells, individual library sequences were measured for toxicity and loss of mitochondrial potentials at 1 and 3 hours post treatment. […] The remaining sequences were then tested for their ability to provide protection against neurotoxins rotenone, 1-methyl-4-phenylpyridinium (MPP+), and trichloromethyl-1,2,3,4-tetrahydro-β-carboline (TaClo).

[6] = tested on: MN9D neuronal cells; assay: Protection of mitochondrial potentials against rotenone, MPP+ and TaClo-induced cytotoxicity; type: cell-based; conditions: 100 nM pretreatment, 1, 3, 12, 24 hours
Protocol: as §2

[7] = 1.1 mg/mL intranasal, striatum, relative to saline vehicle treated rats
[8] = 1.1 mg/mL repeated intranasal, striatum, relative to saline treated rats
[9] = SN, depending on the dosage, relative to saline vehicle treated rats

CC(C)C[C@H](N)C(=O)N[C@@H](C)C(=O)N1CCC[C@H]1C(=O)N[C@@H](C)C(=O)N[C@@H](CCC(=O)O)C(=O)N[C@@H](CC(=O)O)C(N)=O [AV6403, Leu-Ala-Pro-Ala-Glu-Asp-NH2] (H-LAPAED-NH2; N-terminus assumed)
increase in dopamine turnover [(HVA+DOPAC)/DA] [1, 7]: 16% | increase in dopamine turnover [DOPAC/DA] [1, 7]: 22% | reduction of DA levels [1, 7]: 20% | reduction of HVA levels [1, 7]: 25% | reduction of NE levels ([1]; 1.1 mg/mL intranasal, striatum, versus vehicle): ~36% | increase in turnover [5-HIAA/5-HT] [1, 8]: 19% | reduction of 5-HIAA [1, 8]: ~19% | reduction of 5-HT [1, 8]: ~32% | Turnover ratio 5-H1AA/5-HT ([1]; 1.1 mg/ml intranasal): 1.28 | Turnover ratio (HVA + DOPAC)/DA ([1]; 1.1 mg/ml intranasal): 0.36 | Turnover ratio DOPAC/DA ([1]; 1.1 mg/ml intranasal): 0.28 | Turnover ratio HVA/DA ([1]; 1.1 mg/ml intranasal): 0.08 | 5-HIAA ([1]; 1.1 mg/ml intranasal): 326 ng/g | 5-HT ([1]; 1.1 mg/ml intranasal): 257 ng/g | DA ([1]; 1.1 mg/ml intranasal): 9425 ng/g | DOPAC ([1]; 1.1 mg/ml intranasal): 2618 ng/g | HVA ([1]; 1.1 mg/ml intranasal): 699 ng/g | NE ([1]; 1.1 mg/ml intranasal): 45 ng/g | changes in DA turnover ([1]; 3.5 mg/mL intranasal, striatum): minor changes | increase of striatal DA levels ([1]; 3.5 mg/mL intranasal, striatum): 8% | increase of striatal DOPAC levels ([1]; 3.5 mg/mL intranasal, striatum): 11% | Turnover ratio 5-H1AA/5-HT ([1]; 3.5 mg/ml intranasal): 1.11 | Turnover ratio (HVA + DOPAC)/DA ([1]; 3.5 mg/ml intranasal): 0.31 | Turnover ratio DOPAC/DA ([1]; 3.5 mg/ml intranasal): 0.23 | Turnover ratio HVA/DA ([1]; 3.5 mg/ml intranasal): 0.08 | 5-HIAA ([1]; 3.5 mg/ml intranasal): 437 ng/g | 5-HT ([1]; 3.5 mg/ml intranasal): 393 ng/g | DA ([1]; 3.5 mg/ml intranasal): 12475 ng/g | DOPAC ([1]; 3.5 mg/ml intranasal): 2922 ng/g | HVA ([1]; 3.5 mg/ml intranasal): 935 ng/g | NE ([1]; 3.5 mg/ml intranasal): 66 ng/g | change of 5-HT, 5-HIAA and turnover ([1]; higher dosage (3.5 mg/mL) intranasal, striatum, relative to saline treated rats): small increases | decrease of 5-HT ([2]; 1.1 mg/mL intranasal, SN): 10% | increase in serotonin turnover [5-HIAA/5-HT] ([2]; 1.1 mg/mL intranasal, SN): 16% | increase in dopamine turnover [(HVA+DOPAC)/DA] ([2]; 1.1 mg/mL intranasal, SN, relative to saline vehicle treated rats): 23% | Turnover ratio 5-HIAA/5-HT ([2]; 1.1 mg/ml intranasal): 0.58 | Turnover ratio (HVA + DOPAC)/DA ([2]; 1.1 mg/ml intranasal): 0.37 | Turnover ratio DOPAC/DA ([2]; 1.1 mg/ml intranasal): 0.22 | Turnover ratio HVA/DA ([2]; 1.1 mg/ml intranasal): 0.15 | 5-HIAA ([2]; 1.1 mg/ml intranasal): 552 ng/g | 5-HT ([2]; 1.1 mg/ml intranasal): 1014 ng/g | DA ([2]; 1.1 mg/ml intranasal): 1122 ng/g | DOPAC ([2]; 1.1 mg/ml intranasal): 232 ng/g | HVA ([2]; 1.1 mg/ml intranasal): 102 ng/g | NE ([2]; 1.1 mg/ml intranasal): 554 ng/g | increase in dopamine turnover [DOPAC/DA] ([2]; 3.5 mg/mL intranasal, SN, relative to saline vehicle treated rats): 20% | increase of NE levels ([2]; 3.5 mg/mL intranasal, SN, versus vehicle treated rats): about 23% | Turnover ratio 5-HIAA/5-HT ([2]; 3.5 mg/ml intranasal): 0.54 | Turnover ratio (HVA + DOPAC)/DA ([2]; 3.5 mg/ml intranasal): 0.34 | Turnover ratio DOPAC/DA ([2]; 3.5 mg/ml intranasal): 0.24 | Turnover ratio HVA/DA ([2]; 3.5 mg/ml intranasal): 0.11 | 5-HIAA ([2]; 3.5 mg/ml intranasal): 546 ng/g | 5-HT ([2]; 3.5 mg/ml intranasal): 1050 ng/g | DA ([2]; 3.5 mg/ml intranasal): 1096 ng/g | DOPAC ([2]; 3.5 mg/ml intranasal): 253 ng/g | HVA ([2]; 3.5 mg/ml intranasal): 113 ng/g | NE ([2]; 3.5 mg/ml intranasal): 644 ng/g | increase in DOPAC [2, 9]: ~13% | reduction of HVA [2, 9]: 11% | plasma lifetime as compared to the extracellular brain levels ([3]; 30 and 100 mg/kg s.c.): longer lifetime | time of maximum plasma levels post administration ([3]; 30 and 100 mg/kg s.c.): 20 to 40 min | Cmax ([3]; 30 mg/kg s.c.): 3500 ng/mL | Cmax ([3]; 100 mg/kg s.c.): 6000 ng/mL | half-life [4]: 50 to 60 min

C[C@H](NC(=O)[C@@H]1CCCN1C(=O)[C@H](C)NC(=O)[C@@H](N)CCC(=O)O)C(=O)N[C@@H](CCC(=O)O)C(=O)N[C@@H](CC(=O)O)C(N)=O [SEQ ID NO: 11, Glutamate-Alanine-Proline-Alanine-Glutamate-Aspartate-NH2] (H-EAPAED-NH2; N-terminus assumed)
toxicity [5]: low toxicity | protection against neurotoxins (rotenone, MPP+, TaClo) [6]: protection against neurotoxin exposure at all time points measured
